One assay addresses T1, human recombinant GR (Homo sapiens, UniProt P04150).
T1 construct: purchased PanVera P2812
T1 sequence (P04150 1-777): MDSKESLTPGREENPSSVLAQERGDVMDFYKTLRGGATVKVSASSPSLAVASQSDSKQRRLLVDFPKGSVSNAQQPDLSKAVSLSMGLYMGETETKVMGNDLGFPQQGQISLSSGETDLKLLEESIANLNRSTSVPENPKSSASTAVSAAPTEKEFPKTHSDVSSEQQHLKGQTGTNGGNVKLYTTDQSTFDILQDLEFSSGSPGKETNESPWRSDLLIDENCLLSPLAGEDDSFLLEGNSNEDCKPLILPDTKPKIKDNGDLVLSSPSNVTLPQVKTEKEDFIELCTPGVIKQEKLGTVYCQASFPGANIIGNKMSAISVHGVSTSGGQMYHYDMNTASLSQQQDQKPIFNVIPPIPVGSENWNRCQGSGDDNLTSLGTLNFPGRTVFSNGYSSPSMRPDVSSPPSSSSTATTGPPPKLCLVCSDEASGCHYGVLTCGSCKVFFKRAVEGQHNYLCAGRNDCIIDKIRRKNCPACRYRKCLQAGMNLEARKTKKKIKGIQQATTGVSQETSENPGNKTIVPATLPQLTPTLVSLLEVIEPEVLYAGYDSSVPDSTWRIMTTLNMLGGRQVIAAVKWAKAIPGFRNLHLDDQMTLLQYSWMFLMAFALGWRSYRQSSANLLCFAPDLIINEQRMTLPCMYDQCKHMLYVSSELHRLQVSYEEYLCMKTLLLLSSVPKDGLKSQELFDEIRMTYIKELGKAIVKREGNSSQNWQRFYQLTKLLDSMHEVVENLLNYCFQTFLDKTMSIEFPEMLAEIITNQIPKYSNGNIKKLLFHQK
The assay can be described thus: Human Glucocorticoid Receptor (GR) Fluorescence Polarisation (FP) Binding Assay. The note with it: Ki from IC50 by ligand depletion correction; displacement of Fluorome GS Red. As to the method:
The following is a description of a FP assay for measuring compound inhibition of labelled glucocorticoid binding to the human recombinant GR.
The binding affinity of test compounds was determined using a FP binding assay using human recombinant GR (PanVera P2812) and a fluorescent labelled glucocorticoid ligand (Fluorome GS Red) (PanVera P2894). The presence of inhibitors prevents the formation of a GS Red/GR complex resulting in a decrease in the measured polarisation value. The change in polarisation value in the presence of test compounds is used to calculate the binding affinity of the compound for GR.
This assay was performed in 384 well, black, round-bottom, polypropylene micro titre plates in a final volume of 20 μl. The assay contained 5 μl 1 nM GR (final concentration), 5 μl 0.5 nM Fluorome GS Red (final concentration) in the presence of 10p test compounds. Positive control wells (high polarisation) receive, 10 μl 2% (v:v) DMSO vehicle (1% (v/v) final concentration)+5 μl 1 nM GR and 5 μl 0.5 nM Fluorome GS Red. […] Assay blank background wells (used for normalisation) receive 15 μl 1×GS screening buffer+5 μl GR.
For the IC50 determination (concentration of compound that displaces 50% of the bound GS Red), compounds were tested at eight different concentrations in duplicate in two independently performed experiments. Compounds were prepared as solubilised solids at 10 mM in DMSO. On the day of assay, an 8 point half-log serial dilution (55 μl DMSO+25 μl compound solution) was prepared. A 1:50 dilution (1 μl compound solution+49 μl 1×GR screening buffer) was prepared for each compound. The compounds were prepared at 2× final assay concentration.
The plates were mixed and incubated for 4 hour at room temperature. FP was measured using an Envision Excite plate reader with 535 nm excitation and 590 nm emission interference filters.
Milli-polarisation (mP) values were calculated using the below equation: mP=1000*(S−G*P)/(S+G*P) where S and P are assay blank background subtracted fluorescence units, G=G-factor (1.07).
Compound IC50 values were calculated by plotting a [compound] v. % inhibition curve and fitting the data to a 4-parameter logistic fit equation.
10×GR screening buffer (100 mM potassium phosphate pH 7.4, 200 mM Na2MoO4, 1 mM EDTA, 20% (v/v) DMSO). To prepare 1×GR screening buffer, combine 1 ml 10×GR screening buffer (PanVera P2814)+1 ml stabilising peptide (PanVera P2815)+7.95 ml 4° C. MQ water. Add 50p 1M DTT, vortex and place on ice until use.
(In general: Polarisation of emitted light reports the rotation of a fluorescent probe.)

Another assay concerns the target T2, glucocorticoid receptor (Homo sapiens, UniProt P04150).
T2 construct: endogenous in cells; host or cells: HepG2
T2 sequence (P04150 1-777): T1 sequence (P04150 1-777)
The assay can be described thus: HepG2 Tyrosine Aminotransferase (TAT) Assay. In kind it is cell-based. The procedure:
Glucocorticoid mediated activation of TAT occurs by transactivation of glucocorticoid response elements in the TAT promoter by glucocorticoid receptor-agonist complex.
HepG2 cells were cultured using MEME media supplemented with 10% (v/v) foetal bovine serum; 2 mM L-glutamine and 1% (v/v) NEAA at 37° C., 5%/95% (v/v) CO2/air.
Compounds were serially half log diluted in 100% (v/v) dimethylsulphoxide from a 10 mM stock.
HepG2 cells were then lysed with 30 μl of cell lysis buffer containing a protease inhibitor cocktail for 15 minutes at 4° C. […] After 2 hours incubation at 37° C. the reaction was terminated by the addition of 15 μl of 10 M aqueous potassium hydroxide solution, and the plates incubated for a further 30 minutes at 37° C.
[compound] and fitting the data to a 4 parameter logistic equation.

SMILES strings stand for the structures. A value given as a limit tells only on which side of the number the result lay.

For `CCn1ncc(S(=O)(=O)N2CC[C@H]3Cc4c(cnn4-c4ccc(F)cc4)C[C@]3(C(=O)c3cc(C(F)(F)F)ccn3)C2)n1` [Example 2O, ((4aR,8aS)-6-((2-ethyl-2H-1,2,3-triazol-4-yl)sulfonyl)-1-(4-fluorophenyl)-4,4a,5,6,7,8,8a,9-octahydro-1H-pyrazolo[3,4-g]isoquinolin-4a-yl)(4-(trifluoromethyl)pyridin-2-yl)methanone], the figures for the Ki on human recombinant GR and at glucocorticoid receptor were 0.5 to 1 nM and under 20 nM, respectively.
In the same order, the values of `Cn1cc(S(=O)(=O)N2CC[C@H]3Cc4c(cnn4-c4ccc(F)cc4)C[C@]3(C(=O)c3cc(C(F)(F)F)ccn3)C2)nn1` [Example 2P, ((4aR,8aS)-1-(4-fluorophenyl)-6-((1-methyl-1H-1,2,3-triazol-4-yl)sulfonyl)-4,4a,5,6,7,8,8a,9-octahydro-1H-pyrazolo[3,4-g]isoquinolin-4a-yl)(4-(trifluoromethyl)pyridin-2-yl)methanone] are over 1 nM and 20 to 100 nM.
Turning to `O=C(c1ccccn1)[C@]12Cc3cnn(-c4ccc(F)cc4)c3C[C@@H]1CCN(S(=O)(=O)c1cccc(C(F)(F)F)n1)C2` [Example 2Q, ((4aR,8aS)-1-(4-fluorophenyl)-6-((6-(trifluoromethyl)pyridin-2-yl)sulfonyl)-4,4a,5,6,7,8,8a,9-octahydro-1H-pyrazolo[3,4-g]isoquinolin-4a-yl)(pyridin-2-yl)methanone], the Ki was 0.5 to 1 nM on human recombinant GR and under 20 nM at glucocorticoid receptor.
For the compound `Cc1ccnc(C(=O)[C@]23Cc4cnn(-c5ccc(F)cc5)c4C[C@@H]2CCN(S(=O)(=O)c2cnn(C)n2)C3)c1` [Example 2R, ((4aR,8aS)-1-(4-fluorophenyl)-6-((2-methyl-2H-1,2,3-triazol-4-yl)sulfonyl)-4,4a,5,6,7,8,8a,9-octahydro-1H-pyrazolo[3,4-g]isoquinolin-4a-yl)(4-methylpyridin-2-yl)methanone], the inhibition constant (Ki) on human recombinant GR is under 0.5 nM; on glucocorticoid receptor it was under 20 nM.
Turning to `CCCn1ncc(S(=O)(=O)N2CC[C@H]3Cc4c(cnn4-c4ccc(F)cc4)C[C@]3(C(=O)c3cscn3)C2)n1` [Example 2S, ((4aR,8aS)-1-(4-fluorophenyl)-6-((2-propyl-2H-1,2,3-triazol-4-yl)sulfonyl)-4,4a,5,6,7,8,8a,9-octahydro-1H-pyrazolo[3,4-g]isoquinolin-4a-yl)(thiazol-4-yl)methanone], the Ki on human recombinant GR was under 0.5 nM; at glucocorticoid receptor, 20 to 100 nM.
The like results for `N#Cc1cccc(S(=O)(=O)N2CC[C@H]3Cc4c(cnn4-c4ccc(F)cc4)C[C@]3(C(=O)c3ccccn3)C2)c1` [Example 2T, 3-(((4aR,8aS)-1-(4-fluorophenyl)-4a-picolinoyl-4a,5,7,8,8a,9-hexahydro-1H-pyrazolo[3,4-g]isoquinolin-6(4H)-yl)sulfonyl)benzonitrile] were, in that order, over 1 nM and 20 to 100 nM.
The like results for `O=C(c1ccccn1)[C@]12Cc3cnn(-c4ccc(F)cc4)c3C[C@@H]1CCN(S(=O)(=O)c1ccc(C(F)(F)F)c(F)c1)C2` [Example 2U, ((4aR,8aS)-6-((3-fluoro-4-(trifluoromethyl)phenyl)sulfonyl)-1-(4-fluorophenyl)-4,4a,5,6,7,8,8a,9-octahydro-1H-pyrazolo[3,4-g]isoquinolin-4a-yl)(pyridin-2-yl)methanone] were, in that order, over 1 nM and 20 to 100 nM.
In the case of `CN1CCOc2cc(S(=O)(=O)N3CC[C@H]4Cc5c(cnn5-c5ccc(F)cc5)C[C@]4(C(=O)c4ccccn4)C3)cnc21` [Example 2V, ((4aR,8aS)-1-(4-fluorophenyl)-6-((4-methyl-3,4-dihydro-2H-pyrido[3,2-b][1,4]oxazin-7-yl)sulfonyl)-4,4a,5,6,7,8,8a,9-octahydro-1H-pyrazolo[3,4-g]isoquinolin-4a-yl)(pyridin-2-yl)methanone], the Ki at human recombinant GR was over 1 nM; on glucocorticoid receptor, 20 to 100 nM.
The like results for `CCCn1nncc1S(=O)(=O)N1CC[C@H]2Cc3c(cnn3-c3ccc(F)cc3)C[C@]2(C(=O)c2nccs2)C1` [Example 2W, ((4aR,8aS)-1-(4-fluorophenyl)-6-((1-propyl-1H-1,2,3-triazol-5-yl)sulfonyl)-4,4a,5,6,7,8,8a,9-octahydro-1H-pyrazolo[3,4-g]isoquinolin-4a-yl)(thiazol-2-yl)methanone] were, in that order, over 1 nM and over 100 nM.
`Cn1nncc1S(=O)(=O)N1CC[C@H]2Cc3c(cnn3-c3ccc(F)cc3)C[C@]2(C(=O)c2cc(C(F)(F)F)ccn2)C1` [Example 2X, ((4aR,8aS)-1-(4-fluorophenyl)-6-((1-methyl-1H-1,2,3-triazol-5-yl)sulfonyl)-4,4a,5,6,7,8,8a,9-octahydro-1H-pyrazolo[3,4-g]isoquinolin-4a-yl)(4-(trifluoromethyl)pyridin-2-yl)methanone]: the Ki on human recombinant GR is over 1 nM; on glucocorticoid receptor it was over 100 nM.
The like results for `Cn1ncc(S(=O)(=O)N2CC[C@H]3Cc4c(cnn4-c4ccc(F)cc4)C[C@]3(C(=O)c3nccs3)C2)n1` [Example 2Y, ((4aR,8aS)-1-(4-fluorophenyl)-6-((2-methyl-2H-1,2,3-triazol-4-yl)sulfonyl)-4,4a,5,6,7,8,8a,9-octahydro-1H-pyrazolo[3,4-g]isoquinolin-4a-yl)(thiazol-2-yl)methanone] were, in that order, over 1 nM and over 100 nM.
The like results for `CC(C)n1ncc(S(=O)(=O)N2CC[C@H]3Cc4c(cnn4-c4ccc(F)cc4)C[C@]3(C(=O)c3nccs3)C2)n1` [Example 2Z, ((4aR,8aS)-1-(4-fluorophenyl)-6-((2-isopropyl-2H-1,2,3-triazol-4-yl)sulfonyl)-4,4a,5,6,7,8,8a,9-octahydro-1H-pyrazolo[3,4-g]isoquinolin-4a-yl)(thiazol-2-yl)methanone] were, in that order, under 0.5 nM and 20 to 100 nM.

In general, Ki refers to a dissociation constant, usually derived from enzyme kinetics or from competition with a known ligand.

The values above are taken from US12139486B2, “Octahydro fused azadecalin glucocorticoid receptor modulators” (Corcept Therapeutics, Inc., priority 2013, dated 2024).
